Assay [1] deals with T1, Sodium-dependent serotonin transporter (Rattus norvegicus, UniProt P31652). Briefly: Displacement of [3H]citalopram from rat cortical serotonin transporter (SERT). For orientation: Displacement assays read how much labelled ligand stays bound in the presence of the test substance.
In assay [2] the target is T1, Sodium-dependent serotonin transporter. Briefly: Compound was evaluated for its ability to displace [3H]citalopram binding to the rat cortical Serotonin transporter.

T1 sequence (P31652 whole entry): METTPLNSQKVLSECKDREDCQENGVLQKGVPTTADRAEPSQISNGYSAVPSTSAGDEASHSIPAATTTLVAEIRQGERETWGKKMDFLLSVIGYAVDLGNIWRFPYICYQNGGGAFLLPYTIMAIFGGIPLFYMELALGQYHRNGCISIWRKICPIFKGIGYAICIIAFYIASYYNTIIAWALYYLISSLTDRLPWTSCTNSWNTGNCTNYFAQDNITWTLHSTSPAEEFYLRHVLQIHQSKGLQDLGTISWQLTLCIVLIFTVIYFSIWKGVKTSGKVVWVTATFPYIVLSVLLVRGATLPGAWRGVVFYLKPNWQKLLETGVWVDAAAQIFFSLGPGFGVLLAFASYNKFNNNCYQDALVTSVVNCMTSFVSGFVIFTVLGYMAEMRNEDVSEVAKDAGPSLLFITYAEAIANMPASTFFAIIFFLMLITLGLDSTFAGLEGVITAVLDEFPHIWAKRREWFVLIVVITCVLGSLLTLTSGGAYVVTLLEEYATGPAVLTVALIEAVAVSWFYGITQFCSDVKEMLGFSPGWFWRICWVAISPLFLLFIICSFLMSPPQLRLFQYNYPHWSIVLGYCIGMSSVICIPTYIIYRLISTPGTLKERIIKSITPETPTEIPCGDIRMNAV

As for `CN(C)Cc1ccccc1Sc1ccc(I)cc1N`, the inhibition constant Ki (usually a dissociation constant, usually derived from enzyme kinetics or from competition with a known ligand) in assay [1] was found to be 0.013 nM. As for `O=[N+]([O-])c1ccc2nc(N3CCNCC3)cc(I)c2c1`, in assay [1], the affinity corresponds to a Ki of 1.73 nM.

Take `O=[N+]([O-])c1ccc2nc(N3CCNCC3)cc(-c3ccccc3)c2c1`: the inhibition constant (Ki) in assay [1] stood at 60 nM. Regarding `O=CN1CCN(c2cc(Br)c3cc([N+](=O)[O-])ccc3n2)CC1`, the affinity in assay [2], expressed as Ki, was 1.73 nM. As for `O=[N+]([O-])c1ccc2nc(N3CCNCC3)cc(Br)c2c1`, affinity in assay [1] was put at a Ki of 0.37 nM. In assay [1], `C=CCc1cc(N2CCNCC2)nc2ccc([N+](=O)[O-])cc12` yielded an inhibition constant (Ki) of 1.67 nM.

`O=[N+]([O-])c1ccc2nc(N3CCNCC3)cc(Cl)c2c1`: in assay [1], the affinity corresponds to a Ki of 0.03 nM. Still for that read-out and setting: for `O=[N+]([O-])c1ccc2nc(N3CCNCC3)cc(-c3cccs3)c2c1` the value was 67.2 nM; for `C=Cc1cc(N2CCNCC2)nc2ccc([N+](=O)[O-])cc12`, 1.82 nM; for `O=[N+]([O-])c1ccc2nc(N3CCNCC3)cc(-c3ccco3)c2c1`, 5.23 nM. Same read-out and setting: the result for `O=[N+]([O-])c1ccc2nc(N3CCNCC3)cc(Cc3ccccc3)c2c1` reads 127 nM; that for `O=[N+]([O-])c1ccc2nc(N3CCNCC3)cc(N3CCCC3)c2c1`, 61.1 nM.

Values taken from ChEMBL document CHEMBL1135231, “Syntheses and binding affinities of 6-nitroquipazine analogues for serotonin transporter. Part 2: 4-substituted 6-nitroquipazines” (Bioorg Med Chem Lett, 2002).
